Data reported in PMC8759985 (Computational and Structural Biotechnology Journal, 2021).

Target: T1, TRMT2A RRM (Homo sapiens, UniProt Q8IZ69)
T1 sequence (Q8IZ69 69-147): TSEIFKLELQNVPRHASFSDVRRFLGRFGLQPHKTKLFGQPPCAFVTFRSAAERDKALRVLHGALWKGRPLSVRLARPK
Test: SPR
Format: binding

SMILES: NCCCNCCCCNCCCN [spermine]
- Kd: 1300 ± 270 nM
